Broadly, the IC50 is the concentration at which inhibition is half-maximal.

For 34 compounds, IC50 results are on record in patent US20120053165A1, “Novel Phenyl Imidazoles and Phenyl Triazoles As Gamma-Secretase Modulators” (Pfizer Inc., priority 2009, published 2012).

Structures can show the parent of a compound that is named as a salt.
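Note: Aβ(1-42) released into conditioned medium captured by ELISA after roughly 24 h compound exposure, vehicle and inhibitor controls defining maximal and minimal inhibition.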

One test has as its system production of amyloid beta protein Aβ(1-42) in human WT-APP overexpressing CHO cells. To be noted: Homo sapiens, CHO, read-out: Aβ 42 IC50.
Description: Cell-Based γ-Secretase Assay with ELISA Readout
The ability of compounds to modulate production of amyloid beta protein Aβ(1-42) was determined using human WT-APP overexpressing CHO cells. Cells were plated at 22,000 cells/100 μL well in 96 well tissue culture treated, clear plates (Falcon) in DMEM/F12 based medium and incubated for 24 hours at 37° C. […] Compounds were added in fresh medium to achieve 1% final DMSO. Appropriate vehicle and inhibitor controls were added to obtain maximum and minimum inhibition values for the assay before the plates were incubated for about 24 hours at 37° C.
Coating of ELISA assay plates was initiated by addition of 50 μL/well of an in house Aβ(1-42) specific antibody at (4 μg/mL) in 0.1 M NaHCO3 (pH 9.0) into black 384-well Maxisorp® plates (Nunc) and incubated overnight at 4° C. […] Ambient temperature incubation was allowed to proceed for a minimum of two hours before washing 2×100 μL with Wash Buffer (Dulbecco's PBS, 0.05% Tween 20). Assay Buffer (Dulbecco's PBS, 1.0% BSA (Sigma A7030), 0.05% Tween 20) 20 μL/well is then added.
After incubation overnight at 37° C., 5% CO2, 40 μL (in duplicate) of experimental conditioned media are transferred into wells of the blocked ELISA plates containing the capture antibody, followed by overnight incubation at 4° C.
After overnight incubation of the ELISA assay plates at 4° C., unbound Aβ peptides were removed thorough (4×100 μL) washes with Wash Buffer.
Take `CCOc1ccccc1CCNC(=O)c1ccc(-n2cnc(C)c2)c(OC)c1` [Example 104, N-[2-(2-ethoxyphenyl)ethyl]-3-methoxy-4-(4-methyl-1H-imidazol-1-yl)benzamide]: the IC50 is 698 nM.

The test is the same for the next values; noted with them: Homo sapiens, CHO, read-out: Aβ 42 IC50, Geometric mean of 2-8 determinations; human WT-APP overexpressing CHO cells.
For the compound `COc1cc(C(=O)N[C@@H]2CCC[C@@H]2c2ccc(F)cc2)ccc1-n1cnc(C)c1` [Example 115, N-[(1R,2R)-2-(4-fluorophenyl)cyclopentyl]-3-methoxy-4-(4-methyl-1H-imidazol-1-yl)benzamide], the 50% inhibitory concentration (IC50) was 798 nM.

Consider `COc1cc(C(=O)N2CC[C@@H](Oc3ccccc3C(F)(F)F)C2)ccc1-n1cnc(C)c1` [Example 11, 1-[2-methoxy-4-({(3R)-3-[2-(trifluoromethyl)phenoxy]pyrrolidin-1-yl}carbonyl)phenyl]-4-methyl-1H-imidazole], for which the 50% inhibitory concentration (IC50) is 96 nM.

Take `COc1cc(C(=O)NCC2(c3ccccc3)CC2)ccc1-n1cnc(C)c1` [Example 101, 3-methoxy-4-(4-methyl-1H-imidazol-1-yl)-N-[(1-phenylcyclopropyl)methyl]benzamide]: the IC50 turned out to be 686 nM.

For the compound `COc1cc(C(=O)NCc2cc3cc(Cl)ccc3[nH]2)ccc1-n1cnc(C)c1` [Example 15, N-[(5-chloro-1H-indol-2-yl)methyl]-3-methoxy-4-(4-methyl-1H-imidazol-1-yl)benzamide], the IC50 is 547 nM.

On to `COc1cc(C(=O)NCc2nc3cc(Cl)c(C)cc3o2)ccc1-n1cnc(C)c1` [Example 86, N-[(5-chloro-6-methyl-1,3-benzoxazol-2-yl)methyl]-3-methoxy-4-(4-methyl-1H-imidazol-1-yl)benzamide], for which the 50% inhibitory concentration (IC50) is 544 nM.

Consider `COc1cc(C(=O)NCC(c2ccc(C(F)(F)F)cc2)N2CCOCC2)ccc1-n1cnc(C)c1` (stereo not shown) [Example 111, 3-methoxy-4-(4-methyl-1H-imidazol-1-yl)-N-{2-morpholin-4-yl-2-[4-(trifluoromethyl)phenyl]ethyl}benzamide], for which the IC50 is 756 nM.

Regarding `COc1cc(C(=O)NC(c2ccc(F)cc2)c2nc3ccccc3n2C)ccc1-n1cnc(C)c1` (stereo not shown) [Example 107, N-[(4-fluorophenyl)(1-methyl-1H-benzimidazol-2-yl)methyl]-3-methoxy-4-(4-methyl-1H-imidazol-1-yl)benzamide], the IC50 was found to be 735 nM.

On to `COc1cc(C(=O)N2CCC(Oc3ccccc3OC(F)(F)F)CC2)ccc1-n1cnc(C)c1` [Example 93, 1-[3-methoxy-4-(4-methyl-1H-imidazol-1-yl)benzoyl]-4-[2-(trifluoromethoxy)phenoxy]piperidine], for which the half-inhibitory concentration (IC50) turned out to be 602 nM.

In the case of `COc1cc(C(=O)N2CC[C@H](Oc3ccccc3C(F)(F)F)C2)ccc1-n1cnc(C)c1` [Example 34, 1-[2-methoxy-4-({(3S)-3-[2-(trifluoro-methyl)phenoxy]pyrrolidin-1-yl}carbonyl)phenyl]-4-methyl-1H-imidazole, formic acid salt], the IC50 was 297 nM.

Still in this test, the particulars now being: Homo sapiens, CHO, read-out: Aβ 42 IC50, Geometric mean of at least 2 determinations; human WT-APP overexpressing CHO cells.
`COc1cc(C(=O)N2CC(COc3ccc(F)c(C)c3Cl)C2)ccc1-n1cnc(C)c1` [Example 136, 1-[4-({3-[(2-chloro-4-fluoro-3-methyl-phenoxy)methyl]azetidin-1-yl}carbonyl)-2-methoxyphenyl]-4-methyl-1H-imidazole trifluoroacetate salt]: the concentration for half-maximal inhibition (IC50) amounted to 311 nM.

The test is the same for the next values; noted with them: Homo sapiens, CHO, read-out: Aβ 42 IC50, Single IC50 determination; human WT-APP overexpressing CHO cells.
For `COc1ccc2c(c1)CCC2NC(=O)c1ccc(-n2cnc(C)c2)c(OC)c1` (stereo not shown) [Example 120, 3-methoxy-N-(5-methoxy-2,3-dihydro-1H-inden-1-yl)-4-(4-methyl-1H-imidazol-1-yl)benzamide], the IC50 turned out to be 878 nM.

The test is the same for the next values; noted with them: Homo sapiens, CHO, read-out: GM Aβ 42B IC50, Geometric Mean of 2-8 Determinations; human WT-APP overexpressing CHO cells.
Regarding `COc1cc(C(=O)NCCc2cccc(C#N)c2)ccc1-n1cnc(C)c1` [Example 1, N-[2-(3-cyanophenyl)ethyl]-3-methoxy-4-(4-methyl-1H-imidazol-1-yl)benzamide], the half-inhibitory concentration (IC50) worked out at 2920 nM.

As to `Cc1cn(-c2ccc(C(=O)NCCc3cccc(Cl)c3)cc2F)cn1` [Example 8, N-[2-(3-chlorophenyl)ethyl]-3-fluoro-4-(4-methyl-1H-imidazol-1-yl)benzamide], the concentration for half-maximal inhibition (IC50) was determined as 960 nM.

For `COc1cc(C(=O)NCCc2cccc(Cl)c2)ccc1-n1cnc(C)n1` [Example 6, N-[2-(3-chlorophenyl)ethyl]-3-methoxy-4-(3-methyl-[1,2,4]triazol-1-yl)benzamide], the IC50 came to 4210 nM.

With `C#CCOc1cc(C(=O)NCCc2cccc(Cl)c2)ccc1-n1cnc(C)c1` [Example 3, N-[2-(3-chlorophenyl)ethyl]-4-(4-methyl-1H-imidazol-1-yl)-3-(prop-2-yn-1-yloxy)benzamide], the IC50 is 341 nM.

The same test, now with this note: read-out: Aβ 42 IC50; Geometric mean of 2-8 determinations; human WT-APP overexpressing CHO cells.
For the compound `COc1cc(C(=O)NCCc2nc3ccc(Cl)cc3o2)ccc1-n1cnc(C)c1` [Example 38, N-[2-(6-chloro-1,3-benzoxazol-2-yl)ethyl]-3-methoxy-4-(4-methyl-1H-imidazol-1-yl) benzamide], the IC50 turned out to be 354 nM.

Regarding `COc1cc(C(=O)NCCc2cccc(C(F)(F)F)c2)ccc1-n1cnc(C)c1` [Example 24, 3-methoxy-4-(4-methyl-1H-imidazol-1-yl)-N-{2-[3-(tri-fluoromethyl)phenyl]ethyl} benzamide], the concentration for half-maximal inhibition (IC50) stood at 438 nM.

As to `COc1cc(C(=O)NCc2noc3ccc(Cl)cc23)ccc1-n1cnc(C)c1` [Example 17, N-[(5-chloro-1,2-benz-isoxazol-3-yl)methyl]-3-methoxy-4-(4-methyl-1H-imidazol-1-yl) benzamide], the half-inhibitory concentration (IC50) was 371 nM.

In the case of `COc1cc(C(=O)N(C)Cc2cccc3ccccc23)ccc1-n1cnc(C)c1` [Example 118, 3-methoxy-N-methyl-4-(4-methyl-1H-imidazol-1-yl)-N-(1-naphthylmethyl) benzamide], the IC50 came out at 837 nM.

As for `COc1cc(C(=O)NCCc2c[nH]c3ccc(Cl)cc23)ccc1-n1cnc(C)c1` [Example 25, N-[2-(5-chloro-1H-indol-3-yl)ethyl]-3-methoxy-4-(4-methyl-1H-imidazol-1-yl) benzamide], the IC50 was 195 nM.

On to `COc1cc(C(=O)NCc2cc3ccccc3s2)ccc1-n1cnc(C)c1` [Example 87, N-(1-benzothien-2-ylmethyl)-3-methoxy-4-(4-methyl-1H-imidazol-1-yl) benzamide], for which the half-inhibitory concentration (IC50) was determined as 560 nM.

For the compound `COc1cc(C(=O)NCc2ccc(OC(F)(F)F)cc2)ccc1-n1cnc(C)c1` [Example 57, 3-methoxy-4-(4-methyl-1H-imidazol-1-yl)-N-[4-(trifluoro-methoxy)benzyl] benzamide], the IC50 was 339 nM.

Consider `COc1cc(C(=O)NCc2ccc(Cl)c(Cl)c2)ccc1-n1cnc(C)c1` [Example 67, N-(3,4-dichlorobenzyl)-3-methoxy-4-(4-methyl-1H-imidazol-1-yl) benzamide], for which the concentration for half-maximal inhibition (IC50) was determined as 410 nM.

For the compound `COc1cccc(C2(CNC(=O)c3ccc(-n4cnc(C)c4)c(OC)c3)CCCC2)c1` [Example 65, 3-methoxy-N-{[1-(3-methoxyphenyl)cyclopentyl]methyl}-4-(4-methyl-1H-imidazol-1-yl) benzamide], the IC50 stood at 410 nM.

Consider `COc1cc(C(=O)N[C@H](c2ccccc2)[C@@H](O)c2ccccc2)ccc1-n1cnc(C)c1` [Example 80, N-[(1R,2S)-2-hydroxy-1,2-diphenylethyl]-3-methoxy-4-(4-methyl-1H-imidazol-1-yl) benzamide], for which the half-maximal inhibitory concentration (IC50) was 501 nM.

On to `COc1cc(C(=O)N[C@@H]2CCC[C@@H]2Cc2ccccc2)ccc1-n1cnc(C)c1` [Example 72, N-[(1R,2R)-2-benzylcyclopentyl]-3-methoxy-4-(4-methyl-1H-imidazol-1-yl) benzamide], for which the concentration for half-maximal inhibition (IC50) was determined as 442 nM.

In the case of `COc1cc(C(=O)NCc2csc(-c3cccs3)n2)ccc1-n1cnc(C)c1` [Example 44, 3-methoxy-4-(4-methyl-1H-imidazol-1-yl)-N-{[2-(2-thienyl)-1,3-thiazol-4-yl]methyl} benzamide], the half-maximal inhibitory concentration (IC50) came out at 575 nM.

As for “N-{[3-(3- chlorophenyl)- 4,5-dihydro- isoxazol-5-yl] methyl}-3- methoxy-4- (4-methyl-1H- imidazol-1-yl) benzamide [Example 12]”, the half-inhibitory concentration (IC50) was 1310 nM.

Regarding `COc1cc(C(=O)NCc2ccc(Cl)cc2C)ccc1-n1cnc(C)c1` [Example 59, N-(4-chloro-2-methylbenzyl)-3-methoxy-4-(4-methyl-1H-imidazol-1-yl) benzamide], the half-inhibitory concentration (IC50) turned out to be 351 nM.

“N-[2-(4-fluoro- phenyl)-1,1- dimethylethyl]- 3-methoxy-4- (4-methyl-1H- imidazol-1-yl) benzamide [Example 37]”: the IC50 stood at 519 nM.

For the compound `COc1ccc(C2(CNC(=O)c3ccc(-n4cnc(C)c4)c(OC)c3)CCCC2)cc1` [Example 105, 3-methoxy-N-{[1-(4-methoxyphenyl)cyclopentyl]methyl}-4-(4-methyl-1H-imidazol-1-yl) benzamide], the 50% inhibitory concentration (IC50) was 708 nM.

On to `COc1cc(C(=O)NCC2(c3ccc(C(F)(F)F)cc3)CCOCC2)ccc1-n1cnc(C)c1` [Example 28, 3-methoxy-4-(4-methyl-1H-imidazol-1-yl)-N-({4-[4-(tri-fluoromethyl)phenyl]tetrahydro-2H-pyran-4-yl}methyl) benzamide], for which the half-inhibitory concentration (IC50) is 188 nM.

The test is the same for the next values; noted with them: read-out: Aβ 42 IC50; Single IC50 determination; human WT-APP overexpressing CHO cells.
As to `COc1cc(C(=O)NCC2(c3ccc(Br)cc3)CC2)ccc1-n1cnc(C)c1` [Example 39, N-{[1-(4-bromophenyl)cyclopropyl]methyl}-3-methoxy-4-(4-methyl-1H-imidazol-1-yl) benzamide], the concentration for half-maximal inhibition (IC50) is 248 nM.
